In patent US8741951B2, “Non-steroidal compounds for androgen receptor modulation” (CNR—Consiglio Nazionale delle Ricerche, priority 2009, dated 2014):

Molecular target: T1, human androgen receptor (hAR) (Homo sapiens, UniProt P10275)
T1 construct: expressed in transfected cells; host or cells: Cos-7
T1 sequence (P10275 1-920): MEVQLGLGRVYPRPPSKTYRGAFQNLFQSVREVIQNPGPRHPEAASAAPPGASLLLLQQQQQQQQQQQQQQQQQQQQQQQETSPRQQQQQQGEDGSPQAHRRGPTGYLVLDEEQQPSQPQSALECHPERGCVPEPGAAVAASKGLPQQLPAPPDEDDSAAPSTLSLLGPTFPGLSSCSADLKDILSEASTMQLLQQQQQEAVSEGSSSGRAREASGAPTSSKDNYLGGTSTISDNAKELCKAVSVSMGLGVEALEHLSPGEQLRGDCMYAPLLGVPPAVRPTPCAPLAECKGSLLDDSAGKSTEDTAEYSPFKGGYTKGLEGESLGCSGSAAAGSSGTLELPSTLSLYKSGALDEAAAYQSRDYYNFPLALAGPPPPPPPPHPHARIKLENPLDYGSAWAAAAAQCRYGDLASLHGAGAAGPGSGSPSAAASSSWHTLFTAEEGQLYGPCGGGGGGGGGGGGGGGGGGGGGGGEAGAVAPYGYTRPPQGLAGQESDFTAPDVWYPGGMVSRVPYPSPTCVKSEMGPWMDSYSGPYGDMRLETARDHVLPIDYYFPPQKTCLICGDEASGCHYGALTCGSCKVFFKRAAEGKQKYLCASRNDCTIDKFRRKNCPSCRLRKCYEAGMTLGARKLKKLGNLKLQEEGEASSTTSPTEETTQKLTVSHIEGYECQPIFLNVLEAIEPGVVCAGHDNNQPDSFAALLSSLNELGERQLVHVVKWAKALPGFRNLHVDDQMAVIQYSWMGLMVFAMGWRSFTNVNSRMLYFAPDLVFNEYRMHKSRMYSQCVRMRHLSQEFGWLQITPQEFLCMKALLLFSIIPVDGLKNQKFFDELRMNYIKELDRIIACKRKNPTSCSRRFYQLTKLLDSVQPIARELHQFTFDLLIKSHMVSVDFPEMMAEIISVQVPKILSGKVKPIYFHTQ
Assay: hAR transactivation assay (ARE-luc) in Cos-7 cells
Assay type: cell-based
Text: The cDNA coding hAR was cloned into the pSG5 expression vector as reported previously [Chang, C. S., J. Kokontis, and S. T. Liao 1988 Molecular cloning of human and rat complementary DNA encoding androgen receptors Science 240:324-326].
The 3416 construct (ARE-Luc), containing four copies of the wild-type slp-HRE2 (5′-TGGTCAgccAGTTCT-3′) was cloned in the NheI site in pTK-TATA-Luc [Verrijdt, G., E. Schoenmakers, A. Haelens, B. Peeters, G. Verhoeven, W. Rombauts, and F. Claessens 2000 Change of specificity mutations in androgen selective enhancers J. Biol. Chem. 275:12298-12305].
For androgen-stimulated transcriptional analysis, 32×10^4 Cos-7 cells were plated in phenol red-free DMEM containing 5% charcoal-stripped serum. After 48 h, the cells were transfected by Superfect (Qiagen) with 0.3 μg of 3416-pTK-TATA-Luc construct, together with 1.5 μg of either pSG5-empty plasmid or pSG5-hAR expressing plasmid. […] When indicated, the synthetic compounds were added alone to the cell medium. […] It was dissolved in 0.001% (final concentration) ethanol. Control cells were treated with the vehicle alone. Lysates were prepared and the luciferase activity was measured using a luciferase assay system (Promega). The results were corrected using CH110-expressed beta-galactosidase activity (Amersham Biosciences) and luciferase activity was expressed as fold induction. Results were obtained from two or three different experiments, each performed in duplicate. Mean and SEM are shown.

What does the source list for N#Cc1ccc(NC(=O)[C@](O)(Cc2cccs2)CS(=O)(=O)c2ccc(F)cc2)cc1C(F)(F)F [(R)-XXIII-6]?
inhibition of R1881-induced AR transcriptional activation (antagonistic activity), in words (compound 10 μM with 10 nM R1881): antagonistic activity; agonistic activity on AR transcription, in words (compound alone, 10 nM to 1 μM or 10 μM): does not seem to display agonistic activity
